According to US11767322B2 (BRISTOL-MYERS SQUIBB COMPANY, priority 2020, dated 2023):
Read-outs that look alike come from different tables or passages of the source.

Assays:
[1] = tested on: MLKL phosphorylation in HT29-L23 human colorectal adenocarcinoma cells; assay: MLKL phosphorylation high-content assay; type: cell-based
[2] = molecular target: T1, His-GST-TVMV-hRIPK1(1-324) (Homo sapiens, UniProt Q13546); assay: biochemical; type: binding
T1 construct: The coding region of human RIPK1(1-324) flanked by NdeI site at 5′ end; made in house; host or cells: Spodoptera frugiperda Sf9 insect cells (baculovirus, Bac-to-Bac)
T1 sequence (Q13546 1-324): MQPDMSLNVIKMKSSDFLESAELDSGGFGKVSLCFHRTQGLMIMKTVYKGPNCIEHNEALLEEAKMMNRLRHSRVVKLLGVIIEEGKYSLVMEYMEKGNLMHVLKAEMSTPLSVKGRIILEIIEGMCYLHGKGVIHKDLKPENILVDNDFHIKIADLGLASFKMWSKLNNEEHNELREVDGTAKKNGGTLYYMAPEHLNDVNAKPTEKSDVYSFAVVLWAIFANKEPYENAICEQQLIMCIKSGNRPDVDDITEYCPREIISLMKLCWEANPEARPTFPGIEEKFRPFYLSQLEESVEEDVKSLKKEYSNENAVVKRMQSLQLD

[3] = Homo sapiens, 6 h, read-out: pMLKL IC50, HT29-L23 cells, necroptosis induced with TNFα, SMAC mimetic and Z-VAD, 6 h, maximal inhibition defined by Nec1s
[4] = HTRF probe displacement, 1 h at rt, read-out: RIPK1 IC50
[5] = read-out: pMLKL IC50, HT29-L23 cells, necroptosis induced with TNFα, SMAC mimetic and Z-VAD, 6 h, maximal inhibition defined by Nec1s
[6] = HT29-L23 cells, necroptosis induced with TNFα, SMAC mimetic and Z-VAD, 6 h, maximal inhibition defined by Nec1s, read-out: pMLKL IC50
[7] = Homo sapiens, Table 23, representative compounds from WO2018/148626, read-out: pMLKL IC50
[8] = Table 23, representative compounds from WO2018/148626, read-out: RIPK1 IC50
[9] = Homo sapiens, read-out: pMLKL IC50, Table 22, compounds of the present invention
[10] = Table 22, compounds of the present invention, read-out: RPIK1 IC50

Compound | IC50 [1, 3] [nM] | IC50 [2, 4] [nM] | further results
Nc1nc2cc(-c3ccc(Cl)c(C(=O)NCC(O)C(F)(F)c4ccc(F)cc4)c3F)ccn2n1 (single isomer, unassigned) [Example 292, 3-(2-amino-[1,2,4]triazolo[1,5-a]pyridin-7-yl)-6-chloro-N-(3,3-difluoro-3-(4-fluorophenyl)-2-hydroxypropyl)-2-fluorobenzamide] | 1 | 2.4 | –
[2H]C([2H])([2H])c1ccc(-c2ccn3nc(N)nc3c2)c(F)c1C(=O)NCC1(C(O)c2ccc(F)cc2)CC1 (single isomer, unassigned) [Example 307, 3-(2-amino-[1,2,4]triazolo[1,5-a]pyridin-7-yl)-2-fluoro-N-((1-((4-fluorophenyl) (hydroxy)methyl)cyclopropyl)methyl)-6-(methyl-d3)benzamide] | 14 | 9.6 | –
[2H]C([2H])([2H])c1ccc(-c2ccn3nc(N)nc3c2)c(F)c1C(=O)NCC1(C(O)c2ccc(F)cc2)CC1 (single isomer, unassigned) [Example 308, 3-(2-amino-[1,2,4]triazolo[1,5-a]pyridin-7-yl)-2-fluoro-N-((1-((4-fluorophenyl) (hydroxy)methyl)cyclopropyl)methyl)-6-(methyl-d3)benzamide] | – | 12 | IC50 [1, 5]: 9 nM
[2H]C([2H])([2H])c1ccc(-c2ccn3nc(N)nc3c2)c(F)c1C(=O)NCC1(C([2H])(O)c2ccc(F)cc2)CC1 (single isomer, unassigned) [Example 309, 3-(2-amino-[1,2,4]triazolo[1,5-a]pyridin-7-yl)-2-fluoro-N-((1-((4-fluorophenyl) (hydroxy)methyl-d)cyclopropyl)methyl)-6-(methyl-d3)benzamide] | 11 | 6.2 | –
[2H]C([2H])([2H])c1ccc(-c2ccn3nc(N)nc3c2)c(F)c1C(=O)NCC1(C([2H])(O)c2ccc(F)cc2)CC1 (single isomer, unassigned) [Example 310, 3-(2-amino-[1,2,4]triazolo[1,5-a]pyridin-7-yl)-2-fluoro-N-((1-((4-fluorophenyl) (hydroxy)methyl-d)cyclopropyl)methyl)-6-(methyl-d3)benzamide] | – | 5.7 | IC50 [1, 5]: 20 nM
[2H]C(O)(c1ccc(C(F)F)cc1)C(F)(F)CNC(=O)c1c(Cl)ccc(-c2ccn3nc(N)nc3c2)c1F (single isomer, unassigned) [Example 311, 3-(2-amino-[1,2,4]triazolo[1,5-a]pyridin-7-yl)-6-chloro-N-(3-(4-(difluoromethyl)phenyl)-2,2-difluoro-3-hydroxypropyl-3-d)-2-fluorobenzamide] | 0.8 | 5 | –
[2H]C(O)(c1ccc(C(F)F)cc1)C(F)(F)CNC(=O)c1c(Cl)ccc(-c2ccn3nc(N)nc3c2)c1F (single isomer, unassigned) [Example 312, 3-(2-amino-[1,2,4]triazolo[1,5-a]pyridin-7-yl)-6-chloro-N-(3-(4-(difluoromethyl)phenyl)-2,2-difluoro-3-hydroxypropyl-3-d)-2-fluorobenzamide] | – | 5.7 | IC50 [1, 5]: 0.9 nM
Cc1ccc(-c2ccn3nc(N)nc3c2C)c(F)c1C(=O)NCC[C@H](O)c1ccc(Cl)cc1 (single isomer, unassigned; enantiomer 1) [Example 137] | – | 9.7 | IC50 [1, 6]: 0.9 nM
Cc1ccc(-c2ccn3nc(N)nc3c2C)c(F)c1C(=O)NCC[C@H](O)c1ccc(Cl)cc1 (single isomer, unassigned; enantiomer 2) [Example 138] | – | 11 | IC50 [1, 6]: 0.2 nM
Cc1ncc(-c2ccn3nc(N)nc3c2)cc1C(=O)NCC(C)(O)Cc1ccc(F)cc1 (stereo not drawn) [Compound 421 from WO2018/148626, reference compound] | – | – | IC50 [1, 7]: 315 nM; IC50 [2, 8]: 110 nM
Cc1cc(F)c(-c2ccn3nc(N)nc3c2)cc1C(=O)NCC[C@H](O)c1ccc(Cl)cc1 [Example 1, (S)-5-(2-amino-[1,2,4]triazolo[1,5-a]pyridin-7-yl)-N-(3-(4-chlorophenyl)-3-hydroxypropyl)-4-fluoro-2-methylbenzamide] | 1.3 | 1.2 | –
Cc1cc(F)c(-c2ccn3nc(N)nc3c2)cc1C(=O)NCCC(O)c1ccc(Cl)cn1 (stereo not drawn) [Example 5, 5-(2-amino-[1,2,4]triazolo[1,5-a]pyridin-7-yl)-N-(3-(5-chloropyridin-2-yl)-3-hydroxypropyl)-4-fluoro-2-methylbenzamide] | 2.6 | 6.4 | –
Cc1cc(F)c(-c2ccn3nc(N)nc3c2)cc1C(=O)NCCC(O)c1ccc(F)cc1 (stereo not drawn) [Example 8, 5-(2-amino-[1,2,4]triazolo[1,5-a]pyridin-7-yl)-4-fluoro-N-(3-(4-fluorophenyl)-3-hydroxypropyl)-2-methylbenzamide] | 2.3 | 5.1 | –
Cc1ccc(-c2ccn3nc(N)nc3c2)c(F)c1C(=O)NCCC(O)C1CCCCC1 (stereo not drawn) [Example 40, 3-(2-amino-[1,2,4]triazolo[1,5-a]pyridin-7-yl)-N-(3-cyclohexyl-3-hydroxypropyl)-2-fluoro-6-methylbenzamide] | 1.5 | 3.8 | –
Cc1ccc(-c2ccn3nc(N)nc3c2)c(F)c1C(=O)NCCC(O)c1ccc(F)cc1 (stereo not drawn) [Example 49, 3-(2-amino-[1,2,4]triazolo[1,5-a]pyridin-7-yl)-2-fluoro-N-(3-(4-fluorophenyl)-3-hydroxypropyl)-6-methylbenzamide] | 2.6 | 2.5 | IC50 [1, 9]: 2.6 nM; IC50 [2, 10]: 2.5 nM
Cc1ccc(-c2ccn3nc(N)nc3c2)c(F)c1C(=O)NCCC(O)c1ccc(C(F)(F)F)cc1 (stereo not drawn) [Example 55, 3-(2-amino-[1,2,4]triazolo[1,5-a]pyridin-7-yl)-2-fluoro-N-(3-hydroxy-3-(4-(trifluoromethyl)phenyl)propyl)-6-methylbenzamide] | 0.9 | 0.3 | –
[2H]C([2H])(CC([2H])(O)c1ccc(Cl)cc1)NC(=O)c1c(Cl)ccc(-c2ccn3nc(N)nc3c2)c1F (stereo not drawn) [Example 75, 3-(2-amino-[1,2,4]triazolo[1,5-a]pyridin-7-yl)-6-chloro-N-(3-(4-chlorophenyl)-3-hydroxypropyl-1,1,3-d3)-2-fluorobenzamide] | – | 3.2 | IC50 [1, 5]: 4.3 nM
Nc1nc2cc(-c3ccc(Cl)c(C(=O)NCCC(O)c4ccc(F)cc4)c3F)ccn2n1 (stereo not drawn) [Example 78, 3-(2-amino-[1,2,4]triazolo[1,5-a]pyridin-7-yl)-6-chloro-2-fluoro-N-(3-(4-fluorophenyl)-3-hydroxypropyl)benzamide] | 9.9 | 19 | IC50 [1, 9]: 9.9 nM; IC50 [2, 10]: 19 nM
COc1ncc(-c2ccn3nc(N)nc3c2)cc1C(=O)NCCC(O)c1ccc(F)cc1 (stereo not drawn) [Example 78] | – | – | IC50 [1, 7]: 146 nM; IC50 [2, 8]: 120 nM
Nc1nc2cc(-c3ccc(Cl)c(C(=O)NCCC(O)c4ccc(Cl)cn4)c3F)ccn2n1 (stereo not drawn) [Example 81, 3-(2-amino-[1,2,4]triazolo[1,5-a]pyridin-7-yl)-6-chloro-N-(3-(5-chloropyridin-2-yl)-3-hydroxypropyl)-2-fluorobenzamide] | 38 | 24 | –
[2H]C([2H])([2H])c1ccc(-c2ccn3nc(N)nc3c2)c(F)c1C(=O)NCC(F)(F)C(O)c1ccc(F)cc1 (stereo not drawn) [Example 123, 3-(2-amino-[1,2,4]triazolo[1,5-a]pyridin-7-yl)-N-(2,2-difluoro-3-(4-fluorophenyl)-3-hydroxypropyl)-2-fluoro-6-(methyl-d3)benzamide] | 0.8 | 5.7 | –
Nc1nc2cc(-c3ccc(Cl)c(C(=O)NCC(F)C(O)c4ccc(Cl)cc4)c3F)ccn2n1 (stereo not drawn) [Example 128, 3-(2-amino-[1,2,4]triazolo[1,5-a]pyridin-7-yl)-6-chloro-N-(3-(4-chlorophenyl)-2-fluoro-3-hydroxypropyl)-2-fluorobenzamide] | 1.2 | 5 | –
Nc1nc2cc(-c3ccc(Cl)c(C(=O)NCC(F)C(O)c4ccc(Cl)cc4)c3F)ccn2n1 (stereo not drawn) [Example 129, 3-(2-amino-[1,2,4]triazolo[1,5-a]pyridin-7-yl)-6-chloro-N-(3-(4-chlorophenyl)-2-fluoro-3-hydroxypropyl)-2-fluorobenzamide] | – | 3.5 | IC50 [1, 5]: 1.7 nM
Cc1ccc(-c2ccn3nc(N)nc3c2)c(F)c1C(=O)NCCC(O)c1cccc(C#N)c1 (stereo not drawn) [Example 140, 3-{2-amino-[1,2,4]triazolo[1,5-a]pyridin-7-yl}-N-[3-(3-cyanophenyl)-3-hydroxypropyl]-2-fluoro-6-methylbenzamide] | 13 | 0.6 | –
Cc1ccc(-c2ccn3nc(N)nc3c2)c(F)c1C(=O)NCCC(C)(O)c1ccc(C#N)cc1 (stereo not drawn) [Example 141, 3-{2-amino-[1,2,4]triazolo[1,5-a]pyridin-7-yl}-N-[3-(4-cyanophenyl)-3-hydroxybutyl]-2-fluoro-6-methylbenzamide] | 38 | 22 | –
